Data from patent publication US10618916B2, “Heterocyclic compounds as immunomodulators” (Incyte Corporation, priority 2018, dated 2020).

Assays:
[1] = molecular target: PD-L1 (Homo sapiens (Human), UniProt Q9NZQ7); assay: PD-L1 whole blood internalization assay; assay type: cell-based; conditions: 24 HR, PD-L1 expression on CD14+ cells, human interferon γ
Description: Example D. PD-L1 Whole Blood Internalization Assay
To determine PD-L1 internalization in human whole blood, normal human blood (Biological Specialty Corp, Colmar. Pa.) was incubated in the presence or absence of a concentration range of test compounds and 1 ng/ml human interferon γ (R&D Systems Inc. Minn. […] Blood was then stained with PD-L1 (MIH1, eBioscience; or BD Biosciences San Jose, Calif.), CD14 (Life Technologies, Carlsbad, Calif.) for 30 minutes in the dark at room temperature. Whole Blood/red cells were lysed/fixed (lysis buffer BD Biosciences) for 5 minutes at 37° C. in the dark and then centrifuged at 1600 RPM for 5 minutes. Cells were resuspended in Stain Buffer (BD Bioscience, San Jose, Calif.) and transferred into 96 well round bottom plates (Corning). Cells were gated on CD14+(BD Biosciences) and PD-L1 expression determined by mean fluorescence intensity (MFI) (BD LSRFortessa™ X-20). IC50 determination was performed by fitting the curve of compound percent inhibition versus the log of the compound concentration using the GraphPad Prism 7.0 software.

[2] = tested on: PD-L1 aAPC/CHO-K1 cells and Jurkat-PD-1-NFAT effector cells; assay: Nuclear factor of activated T-cells (NFAT) assay; assay type: cell-based; conditions: Cricetulus griseus, CHO-K1
Description: Example C. Nuclear Factor of Activated T-Cells (NFAT) Assay
PD-L1 aAPC/CHO-K1 cells (Promega) were maintained in F-12 medium with addition of 10% FBS, 200 μg/ml Hygromycin B, 250 μg/ml Geneticin (G418). Jurkat-PD-1-NFAT effector cells (Promega) were cultured in RPMI 1640 medium supplemented with 10% FBS, 100 μg/ml Hygromycin B, 500 μg/ml G418. The culture media of PD-L1 aAPC/CHO-K1 cells were first replaced with assay medium (RPMI1640 medium with 1% FBS). The PD-L1 aAPC/CHO-K1 cells were then added in a white 384-well white clear bottom assay plate (CELLCOAT® Tissue Culture Plates, Greiner Bio-One) at 8000 per well in 10 μL assay medium. Test compounds were prepared by serial dilution in DMSO and 0.8 μL test compounds in DMSO were first transferred to the 384 REMP plate well (Thermofisher) by PlateMate Plus (Thermofisher) followed with addition of 50 μL plating medium. 5 μL compounds in the assay medium were transferred to the cells with 0.4% DMSO in the final assay at 2 μM. After removing the culture media, 10,000 Jurkat-PD-1-NFAT effector cells in 5 μL assay medium was dispensed into each well. The assay plate was incubated at 37° C., 5% CO2 for 24 hours. After the assay plate was equilibrated to room temp for 15 minutes, 20 µL/well of Bio-Glo™ reagent (Promega) were added. After 8 minutes incubation at room temperature, luminescence was read at with Pherastar microplate reader (BMG Labtech). The fold of induction (FOI) was calculated based on the ratio of luminescence normalized to the DMSO wells within each assay plate. The maximum percentage of induction was reported based on the ratio between the highest FOI of each compound and the maximum FOI of control compound within each assay plate. Wells with DMSO were served as the negative controls and wells containing control compound with the highest FOI were used as positive controls. EC50 determination was performed by fitting the curve of percent control activity versus the log of the compound concentration using the GraphPad Prism 6.0 software.

[3] = molecular target: PD-1/PD-L1 protein/protein interaction (recombinant human PD-L1 and human PD-1) (Homo sapiens (Human), UniProt Q9NZQ7); assay: Homogeneous Time-Resolved Fluorescence (HTRF) PD-1/PD-L1 binding assay
Description: Example A. Homogeneous Time-Resolved Fluorescence (HTRF) PD-1/PD-L1 Binding Assay
The assays were conducted in a standard black 384-well polystyrene plate with a final volume of 20 μL. Inhibitors were first serially diluted in DMSO and then added to the plate wells before the addition of other reaction components. The final concentration of DMSO in the assay was 1%. The assays were carried out at 25° C. in the PBS buffer (pH 7.4) with 0.05% Tween-20 and 0.1% BSA. Recombinant human PD-L1 protein (19-238) with a His-tag at the C-terminus was purchased from AcroBiosystems (PD1-H5229). Recombinant human PD-1 protein (25-167) with Fc tag at the C-terminus was also purchased from AcroBiosystems (PD1-H5257). PD-L1 and PD-1 proteins were diluted in the assay buffer and 10 μL was added to the plate well. Plates were centrifuged and proteins were preincubated with inhibitors for 40 minutes. The incubation was followed by the addition of 10 μL of HTRF detection buffer supplemented with Europium cryptate-labeled anti-human IgG (PerkinElmer-AD0212) specific for Fc and anti-His antibody conjugated to SureLight®-Allophycocyanin (APC, PerkinElmer-AD0059H). After centrifugation, the plate was incubated at 25° C. for 60 min. before reading on a PHERAstar FS plate reader (665 nm/620 nm ratio). Final concentrations in the assay were—3 nM PD1, 10 nM PD-L1, 1 nM europium anti-human IgG and 20 nM anti-His-Allophycocyanin. IC50 determination was performed by fitting the curve of percent control activity versus the log of the inhibitor concentration using the GraphPad Prism 5.0 software.

PD-1/PD-L1 protein/protein interaction (recombinant human PD-L1 and human PD-1), sequence (Q9NZQ7 19-238): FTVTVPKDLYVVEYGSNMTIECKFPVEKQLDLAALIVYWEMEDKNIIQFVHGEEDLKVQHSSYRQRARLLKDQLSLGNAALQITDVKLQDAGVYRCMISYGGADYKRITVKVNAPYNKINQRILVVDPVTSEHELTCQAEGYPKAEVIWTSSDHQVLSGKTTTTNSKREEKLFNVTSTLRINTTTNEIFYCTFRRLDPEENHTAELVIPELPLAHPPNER
PD-L1, sequence (Q9NZQ7 19-290): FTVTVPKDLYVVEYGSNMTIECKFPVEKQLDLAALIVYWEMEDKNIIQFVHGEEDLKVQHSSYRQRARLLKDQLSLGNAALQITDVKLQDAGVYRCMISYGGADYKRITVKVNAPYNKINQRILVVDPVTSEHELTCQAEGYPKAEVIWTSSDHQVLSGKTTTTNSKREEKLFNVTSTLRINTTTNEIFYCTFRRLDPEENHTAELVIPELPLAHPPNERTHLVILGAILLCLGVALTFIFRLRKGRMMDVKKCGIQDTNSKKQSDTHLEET

IC50 [1] [nM] | IC50 [3] [nM] | Compound | EC50 [2] [nM]
10 to 100 | ≤ 5 | Cn1c(C(=O)Nc2cccc(-c3cccc(NC(=O)c4nc5c(n4C)CCN(C4CCN(C(N)=O)CC4)C5)c3Cl)c2Cl)nc2c1CCN(CCC13CCC(C(=O)O)(CC1)C3)C2 [Example 7, 4-(2-(2-((3′-(5-(1-carbamoylpiperidin-4-yl)-1-methyl-4,5,6,7-tetrahydro-1H-imidazo[4,5-c]pyridine-2-carboxamido)-2,2′-dichloro-[1,1′-biphenyl]-3-yl)carbamoyl)-1-methyl-1,4,6,7-tetrahydro-5H-imidazo[4,5-c]pyridin-5-yl)ethyl)bicyclo[2.2.1]heptane-1-carboxylic acid] | 10 to 100
10 to 100 | ≤ 5 | Cc1c(NC(=O)c2nc3c(n2C)CCN(CCO)C3)cccc1-c1cccc(NC(=O)c2nc3c(n2C)CCN(CCC24CCC(C(=O)O)(CC2)C4)C3)c1Cl [Example 33, 4-(2-(2-((2-chloro-3′-(5-(2-hydroxyethyl)-1-methyl-4,5,6,7-tetrahydro-1H-imidazo[4,5-c]pyridine-2-carboxamido)-2′-methyl-[1,1′-biphenyl]-3-yl)carbamoyl)-1-methyl-1,4,6,7-tetrahydro-5H-imidazo[4,5-c]pyridin-5-yl)ethyl)bicyclo[2.2.1]heptane-1-carboxylic acid] | 10 to 100
10 to 100 | ≤ 5 | Cc1c(NC(=O)c2nc3c(n2C)CCN(C[C@H](C)O)C3)cccc1-c1cccc(NC(=O)c2nc3c(n2C)CCN(CCC24CCC(C(=O)O)(CC2)C4)C3)c1Cl [Example 32, (S)-4-(2-(2-((2-chloro-3′-(5-(2-hydroxypropyl)-1-methyl-4,5,6,7-tetrahydro-1H-imidazo[4,5-c]pyridine-2-carboxamido)-2′-methyl-[1,1′-biphenyl]-3-yl)carbamoyl)-1-methyl-1,4,6,7-tetrahydro-5H-imidazo[4,5-c]pyridin-5-yl)ethyl)bicyclo[2.2.1]heptane-1-carboxylic acid] | 10 to 100
10 to 100 | ≤ 5 | Cn1c(C(=O)Nc2cccc(-c3cccc(NC(=O)c4nc5c(n4C)CCN(CCC46CCC(C(=O)O)(CC4)C6)C5)c3Cl)c2Cl)nc2c1CCN(CCCCC(=O)O)C2 [Example 63, 4-(2-(2-((3′-(5-(4-carboxybutyl)-1-methyl-4,5,6,7-tetrahydro-1H-imidazo[4,5-c]pyridine-2-carboxamido)-2,2′-dichloro-[1,1′-biphenyl]-3-yl)carbamoyl)-1-methyl-1,4,6,7-tetrahydro-5H-imidazo[4,5-c]pyridin-5-yl)ethyl)bicyclo[2.2.1]heptane-1-carboxylic acid] | 10 to 100
10 to 100 | ≤ 5 | CN(C)C(=O)CCCCN1CCc2c(nc(C(=O)Nc3cccc(-c4cccc(NC(=O)c5nc6c(n5C)CCN(CCC57CCC(C(=O)O)(CC5)C7)C6)c4Cl)c3Cl)n2C)C1 [Example 64, 4-(2-(2-((2,2′-dichloro-3′-(5-(5-(dimethylamino)-5-oxopentyl)-1-methyl-4,5,6,7-tetrahydro-1H-imidazo[4,5-c]pyridine-2-carboxamido)-[1,1′-biphenyl]-3-yl)carbamoyl)-1-methyl-1,4,6,7-tetrahydro-5H-imidazo[4,5-c]pyridin-5-yl)ethyl)bicyclo[2.2.1]heptane-1-carboxylic Acid] | ≤ 10
